pEC50: −log10 of the molar value.
Experiments:
TphKP.Um = test system: T1, TphKP.Um; assay: uptake-coupled TphR-sfGFP biosensor dose response in P. putida KT2440; format: cell-based, Pseudomonas umsongensis; conditions: whole-cell transporter-biosensor EC50 (reflects transporter plus TphR sensor); LB, 16 h, 0.005-1 mM TPA
T1 construct: gene tphK; full-length transporter expressed in Pseudomonas putida KT2440 with TphR-sfGFP reporter plasmid
Text: uptake-coupled TphR-sfGFP biosensor dose response in P. putida KT2440 on TphKP.Um

TphKP.Man = target: T2, TphKP.Man (Pseudomonas mandelii, UniProt A0A024E7Y9); assay: as above; format: cell-based
T2 construct: gene tpaK; full-length transporter expressed in Pseudomonas putida KT2440 with TphR-sfGFP reporter plasmid
Text: uptake-coupled TphR-sfGFP biosensor dose response in P. putida KT2440 on TphKP.Man

TphKS.Nap = test system: T3, TphKS.Nap; assay: as above; format: cell-based, Sphingobium naphthae; conditions: whole-cell transporter-biosensor EC50 (reflects transporter plus TphR sensor); LB, 16 h, 0.005-1 mM TPA
T3 construct: gene tphK; full-length transporter expressed in Pseudomonas putida KT2440 with TphR-sfGFP reporter plasmid
Text: uptake-coupled TphR-sfGFP biosensor dose response in P. putida KT2440 on TphKS.Nap

TphKB.Pac = test system: T4, TphKB.Pac; assay: as above; format: cell-based, Bradyrhizobium pachyrhizi; conditions: whole-cell transporter-biosensor EC50 (reflects transporter plus TphR sensor); LB, 16 h, 0.005-1 mM TPA
T4 construct: gene tphK; full-length transporter expressed in Pseudomonas putida KT2440 with TphR-sfGFP reporter plasmid
Text: uptake-coupled TphR-sfGFP biosensor dose response in P. putida KT2440 on TphKB.Pac

TphKS.Hor = test system: T5, TphKS.Hor; assay: as above; format: cell-based, Saccharopolyspora hordei; conditions: whole-cell transporter-biosensor EC50 (reflects transporter plus TphR sensor); LB, 16 h, 0.005-1 mM TPA
T5 construct: gene tphK; full-length transporter expressed in Pseudomonas putida KT2440 with TphR-sfGFP reporter plasmid
Text: uptake-coupled TphR-sfGFP biosensor dose response in P. putida KT2440 on TphKS.Hor

TphKR.Pyr = test system: T6, TphKR.Pyr; assay: as above; format: cell-based, Rhodococcus pyridinivorans; conditions: whole-cell transporter-biosensor EC50 (reflects transporter plus TphR sensor); LB, 16 h, 0.005-1 mM TPA
T6 construct: gene tphK; full-length transporter expressed in Pseudomonas putida KT2440 with TphR-sfGFP reporter plasmid
Text: uptake-coupled TphR-sfGFP biosensor dose response in P. putida KT2440 on TphKR.Pyr

TphKR.Op = target: T7, TphKR.Op (Rhodococcus opacus, UniProt A0A1B1KG70); assay: as above; format: cell-based
T7 construct: gene tpaK; full-length transporter expressed in Pseudomonas putida KT2440 with TphR-sfGFP reporter plasmid
T7 sequence (A0A1B1KG70 1-459): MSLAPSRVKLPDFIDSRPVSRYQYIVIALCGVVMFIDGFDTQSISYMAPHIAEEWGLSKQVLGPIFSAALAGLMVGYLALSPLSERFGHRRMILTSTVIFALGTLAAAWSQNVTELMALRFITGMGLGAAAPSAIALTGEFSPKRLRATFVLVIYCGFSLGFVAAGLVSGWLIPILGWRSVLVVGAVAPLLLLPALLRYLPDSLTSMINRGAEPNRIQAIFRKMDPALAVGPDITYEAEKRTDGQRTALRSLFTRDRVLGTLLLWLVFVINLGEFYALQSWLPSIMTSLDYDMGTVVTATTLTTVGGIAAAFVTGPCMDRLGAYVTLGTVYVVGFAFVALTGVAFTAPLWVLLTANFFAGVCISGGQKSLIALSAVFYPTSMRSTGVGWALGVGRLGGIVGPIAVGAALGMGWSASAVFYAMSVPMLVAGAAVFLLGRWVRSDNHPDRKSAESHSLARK
Text: uptake-coupled TphR-sfGFP biosensor dose response in P. putida KT2440 on TphKR.Op

PcaKN.Ani = target: T8, PcaKN.Ani (Neisseria animalis, UniProt A0A5P3MSQ9); assay: uptake-coupled PcaV-sfGFP biosensor dose response in P. putida KT2440 delta-pcaK; format: cell-based
T8 construct: gene D0T90_09335; full-length transporter expressed in Pseudomonas putida KT2440 delta-pcaK with PcaV-sfGFP reporter plasmid; 4,5-cleavage pathway operon
Text: uptake-coupled PcaV-sfGFP biosensor dose response in P. putida KT2440 delta-pcaK on PcaKN.Ani

PcaKB.Mas = test system: T9, PcaKB.Mas; assay: as above; format: cell-based, Bacillus massiliglaciei; conditions: whole-cell transporter-biosensor EC50 (reflects transporter plus PcaV sensor); LB, 3 h, 0.01-5 mM PCA
T9 construct: gene pcaK; full-length transporter expressed in Pseudomonas putida KT2440 delta-pcaK with PcaV-sfGFP reporter plasmid; 2,3-cleavage pathway operon
Text: uptake-coupled PcaV-sfGFP biosensor dose response in P. putida KT2440 delta-pcaK on PcaKB.Mas

PcakA.Ant = target: T10, PcakA.Ant (Comamonas antarctica, UniProt A0A6N1X255); assay: as above; format: cell-based
T10 construct: gene HUK68_11000; full-length transporter expressed in Pseudomonas putida KT2440 delta-pcaK with PcaV-sfGFP reporter plasmid; 4,5-cleavage pathway operon
T10 sequence (A0A6N1X255 1-458): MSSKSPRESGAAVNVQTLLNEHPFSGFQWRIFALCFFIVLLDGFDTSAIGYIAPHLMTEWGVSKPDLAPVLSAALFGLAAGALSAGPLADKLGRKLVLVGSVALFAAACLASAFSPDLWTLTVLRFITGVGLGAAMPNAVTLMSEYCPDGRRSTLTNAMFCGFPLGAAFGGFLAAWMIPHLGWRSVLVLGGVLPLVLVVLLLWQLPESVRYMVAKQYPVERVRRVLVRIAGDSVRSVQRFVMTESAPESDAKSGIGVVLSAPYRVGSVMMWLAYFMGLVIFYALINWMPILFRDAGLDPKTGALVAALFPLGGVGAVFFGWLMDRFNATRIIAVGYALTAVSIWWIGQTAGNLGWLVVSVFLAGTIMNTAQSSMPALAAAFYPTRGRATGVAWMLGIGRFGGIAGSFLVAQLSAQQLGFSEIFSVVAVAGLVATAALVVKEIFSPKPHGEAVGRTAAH
Text: uptake-coupled PcaV-sfGFP biosensor dose response in P. putida KT2440 delta-pcaK on PcakA.Ant

PcaKP.Put = target: T11, PcaKP.Put (Pseudomonas putida, UniProt Q51955); assay: as above; format: cell-based
T11 construct: gene pcaK; full-length transporter expressed in Pseudomonas putida KT2440 delta-pcaK with PcaV-sfGFP reporter plasmid
T11 sequence (Q51955 1-448): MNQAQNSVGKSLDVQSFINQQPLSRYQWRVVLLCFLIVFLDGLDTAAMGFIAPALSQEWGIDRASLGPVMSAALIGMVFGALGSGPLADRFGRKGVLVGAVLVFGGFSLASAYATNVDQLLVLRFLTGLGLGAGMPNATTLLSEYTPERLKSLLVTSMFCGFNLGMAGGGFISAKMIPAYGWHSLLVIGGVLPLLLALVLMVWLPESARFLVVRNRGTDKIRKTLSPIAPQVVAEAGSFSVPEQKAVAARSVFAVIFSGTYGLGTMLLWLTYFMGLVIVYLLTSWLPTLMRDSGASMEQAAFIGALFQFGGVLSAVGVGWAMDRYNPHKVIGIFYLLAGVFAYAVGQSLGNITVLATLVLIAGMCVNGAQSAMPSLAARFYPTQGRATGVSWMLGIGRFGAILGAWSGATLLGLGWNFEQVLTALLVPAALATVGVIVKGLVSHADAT
Text: uptake-coupled PcaV-sfGFP biosensor dose response in P. putida KT2440 delta-pcaK on PcaKP.Put

T8 sequence (A0A5P3MSQ9 entry or part of it): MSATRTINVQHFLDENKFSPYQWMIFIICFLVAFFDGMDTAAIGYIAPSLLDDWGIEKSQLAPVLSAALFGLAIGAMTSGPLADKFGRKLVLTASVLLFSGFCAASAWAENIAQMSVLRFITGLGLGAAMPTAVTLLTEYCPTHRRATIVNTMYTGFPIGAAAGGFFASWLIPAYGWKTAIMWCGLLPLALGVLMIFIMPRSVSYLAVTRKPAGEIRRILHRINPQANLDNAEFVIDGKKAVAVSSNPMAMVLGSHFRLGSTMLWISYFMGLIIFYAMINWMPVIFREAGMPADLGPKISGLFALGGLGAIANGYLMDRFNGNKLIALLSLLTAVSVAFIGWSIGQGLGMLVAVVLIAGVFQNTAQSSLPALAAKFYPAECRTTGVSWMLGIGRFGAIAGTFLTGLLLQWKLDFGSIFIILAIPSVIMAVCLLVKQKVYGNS

SMILES | pEC50 (TphKP.Um) | pEC50 (TphKP.Man) | pEC50 (TphKS.Nap) | pEC50 (TphKB.Pac) | pEC50 (TphKS.Hor) | pEC50 (TphKR.Pyr) | pEC50 (TphKR.Op) | pEC50 (PcaKN.Ani) | pEC50 (PcaKB.Mas) | pEC50 (PcakA.Ant) | pEC50 (PcaKP.Put)
O=C(O)c1ccc(C(=O)O)cc1 [T3, terephthalic acid] | 4.72 | 4.84 | 5.71 | 4.77 | 4.40 | 4.97 | 4.10 | – | – | – | –
O=C(O)c1ccc(O)c(O)c1 [P2, protocatechuic acid] | – | – | – | – | – | – | – | 3.07 | 2.77 | 3.13 | 2.69

Source: publication PMC12577307, “Genetically encoded biosensor enabled mining, characterisation and engineering of aromatic acid MFS transporters” (Journal of Biological Engineering, 2025)
